Results from PubChem BioAssay (NCI).
“And” between values parts separate entries of the source, which are not always exact repeats. Equal values may be shown once.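 Tested at 5 concentrations; 48 h exposure; 96-well plates; endpoints linearly interpolated, else capped at highest concentration. Here, GI50 denotes the concentration required for 50% inhibition of growth. TGI: concentration producing complete growth inhibition.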

How the values were obtained:
Assay in all cases: NCI-60 cell line screen, 48 h
[1] = system: MDA-MB-468 breast
[2] = system: 786-0 renal
[3] = system: A498 renal
[4] = system: A549 NSCLC
[5] = system: ACHN renal
[6] = system: BT-549 breast
[7] = system: CAKI-1 renal
[8] = system: CCRF-CEM leukemia
[9] = system: COLO 205 colon
[10] = system: DU-145 prostate
[11] = system: EKVX NSCLC
[12] = system: HCC-2998 colon
[13] = system: HCT-116 colon
[14] = system: HCT-15 colon
[15] = system: HL-60(TB) leukemia
[16] = system: HOP-62 NSCLC
[17] = system: HOP-92 NSCLC
[18] = system: HS 578T breast
[19] = system: HT29 colon
[20] = system: IGROV1 ovarian
[21] = system: K-562 leukemia
[22] = system: KM12 colon
[23] = system: LOX IMVI melanoma
[24] = system: M14 melanoma
[25] = system: MALME-3M melanoma
[26] = system: MCF7 breast
[27] = system: MDA-MB-231 breast
[28] = system: MDA-MB-435
[29] = system: MOLT-4 leukemia
[30] = system: NCI-H226 lung
[31] = system: NCI-H23 lung
[32] = system: NCI-H460 lung
[33] = system: NCI-H522 lung
[34] = system: OVCAR-3 ovarian
[35] = system: OVCAR-4 ovarian
[36] = system: OVCAR-5 ovarian
[37] = system: OVCAR-8 ovarian
[38] = system: PC-3 prostate
[39] = system: RPMI-8226 leukemia
[40] = system: RXF 393 renal
[41] = system: SF-268 CNS
[42] = system: SF-295 CNS
[43] = system: SF-539 CNS
[44] = system: SK-MEL-2 melanoma
[45] = system: SK-MEL-28 melanoma
[46] = system: SK-MEL-5 melanoma
[47] = system: SK-OV-3 ovarian
[48] = system: SN12C renal
[49] = system: SNB-19 CNS
[50] = system: SR leukemia
[51] = system: SW-620 colon
[52] = system: T-47D breast
[53] = system: TK-10 renal
[54] = system: U251 CNS
[55] = system: UACC-257 melanoma
[56] = system: UACC-62 melanoma
[57] = system: UO-31 renal

`OCCN1CCN(CC/C=C2\c3ccccc3Sc3ccc(Cl)cc32)CC1` was tested, and the GI50 [1] was 1.54 µM and 1.82 µM and the TGI [1] was 3.18 µM and 4.05 µM.
With `COc1cc(/C=C/C(=O)c2cnn(-c3cc(=O)[nH]c4ccc(C)cc34)c2C)cc(OC)c1OC` the GI50 [2] was 3.52 µM, the TGI [2] was 14.6 µM and the GI50 [3] was 18 µM. It also gave a TGI [3] of 35.9 µM, a GI50 [4] of 3.17 µM and a TGI [4] of 11.2 µM. The GI50 [5] was 1.72 µM, the TGI [5] was 3.79 µM and the GI50 [6] was 2.43 µM. The TGI [6] was 8.55 µM, the GI50 [7] was 3.75 µM and the TGI [7] was 18.6 µM. For the same compound, the GI50 [8] was 2.28 µM, the TGI [8] was 8.76 µM and the GI50 [9] was 2.77 µM. It also gave a TGI [9] of 8.8 µM, a GI50 [10] of 3.39 µM and a TGI [10] of 12.6 µM. It also gave a GI50 [11] of 2.84 µM, a TGI [11] of 12.2 µM and a GI50 [12] of 2.98 µM. It also gave a TGI [12] of 9.14 µM, a GI50 [13] of 3.63 µM and a TGI [13] of 12.9 µM. It also gave a GI50 [14] of 1.92 µM, a TGI [14] of 5.01 µM and a GI50 [15] of 2.29 µM. The TGI [15] was 11.3 µM, the GI50 [16] was 3.56 µM and the TGI [16] was 12.5 µM. It also gave a GI50 [17] of 4.34 µM, a TGI [17] of 23.4 µM and a GI50 [18] of 3.56 µM. For the same compound, the TGI [18] was over 100 µM, the GI50 [19] was 3.07 µM and the TGI [19] was 10 µM. For the same compound, the GI50 [20] was 2.41 µM, the TGI [20] was 7.14 µM and the GI50 [21] was 2.24 µM. It also gave a TGI [21] of over 100 µM, a GI50 [22] of 3.24 µM and a TGI [22] of 10.6 µM. The GI50 [23] was 1.54 µM, the TGI [23] was 3.76 µM and the GI50 [24] was 3.16 µM. The TGI [24] was 13.2 µM, the GI50 [25] was 3.89 µM and the TGI [25] was 16.7 µM. The GI50 [26] was 2.7 µM, the TGI [26] was 11.4 µM and the GI50 [27] was 3.1 µM. The TGI [27] was 11.9 µM, the GI50 [28] was 3.02 µM and the TGI [28] was 12.1 µM. The GI50 [1] was 1.58 µM, the TGI [1] was 3.63 µM and the GI50 [29] was 2.53 µM. It also gave a TGI [29] of 10.4 µM, a GI50 [30] of 2.64 µM and a TGI [30] of 7.79 µM. It also gave a GI50 [31] of 1.89 µM, a TGI [31] of 4.3 µM and a GI50 [32] of 1.86 µM. The TGI [32] was 4.38 µM, the GI50 [33] was 2.65 µM and the TGI [33] was 8.02 µM. It also gave a GI50 [34] of 2.79 µM, a TGI [34] of 7.95 µM and a GI50 [35] of 3.85 µM. The TGI [35] was 48.8 µM, the GI50 [36] was 3.25 µM and the TGI [36] was 11.6 µM. It also gave a GI50 [37] of 2 µM, a TGI [37] of 4.63 µM and a GI50 [38] of 6.04 µM. It also gave a TGI [38] of 26.8 µM, a GI50 [39] of 2.02 µM and a TGI [39] of 7.59 µM. For the same compound, the GI50 [40] was 2.09 µM, the TGI [40] was 5.13 µM and the GI50 [41] was 3.43 µM. It also gave a TGI [41] of 14.8 µM, a GI50 [42] of 3 µM and a TGI [42] of 11.1 µM. It also gave a GI50 [43] of 2.11 µM, a TGI [43] of 4.79 µM and a GI50 [44] of 2.9 µM. It also gave a TGI [44] of 11 µM, a GI50 [45] of 3.7 µM and a TGI [45] of 13.2 µM. The GI50 [46] was 2.39 µM, the TGI [46] was 7.34 µM and the GI50 [47] was 3.91 µM. For the same compound, the TGI [47] was 13.4 µM, the GI50 [48] was 2.57 µM and the TGI [48] was 10.2 µM. It also gave a GI50 [49] of 3.11 µM, a TGI [49] of 12 µM and a GI50 [50] of 1.76 µM. It also gave a TGI [50] of 11.3 µM, a GI50 [51] of 3.06 µM and a TGI [51] of 10.5 µM. The GI50 [52] was 2.57 µM, the TGI [52] was 16.2 µM and the GI50 [53] was 3.54 µM. The TGI [53] was 11.5 µM, the GI50 [54] was 2.42 µM and the TGI [54] was 8.48 µM. The GI50 [55] was 4.85 µM, the TGI [55] was 20.4 µM and the GI50 [56] was 2.85 µM. For the same compound, the TGI [56] was 10.9 µM, the GI50 [57] was 2.98 µM and the TGI [57] was 13.1 µM.
